Positions of bridges follow the written chain, without caps; N, C: chain ends. No end group written: not given here.
Tests used:
hKv1.3 [1] = target: T1, hKv1.3 (Homo sapiens, UniProt P22001); assay: Whole-cell patch clamp of hKv1.3 currents in activated human T lymphocytes; assay type: cell-based; details: for Hill coefficient (H): Hill equation fit of concentration-response on hKv1.3, n = 3-5; for Activity on hKv1.3: RP-HPLC fraction of His-tagged recombinant peptide, patch clamp; for recovery from block on perfusion with toxin-free solution: washout; for time needed to reach equilibrium (steady-state) block of hKv1.3: 1 nM
T1 construct: endogenous in cells
T1 sequence (P22001 whole entry, the tested form may be a part): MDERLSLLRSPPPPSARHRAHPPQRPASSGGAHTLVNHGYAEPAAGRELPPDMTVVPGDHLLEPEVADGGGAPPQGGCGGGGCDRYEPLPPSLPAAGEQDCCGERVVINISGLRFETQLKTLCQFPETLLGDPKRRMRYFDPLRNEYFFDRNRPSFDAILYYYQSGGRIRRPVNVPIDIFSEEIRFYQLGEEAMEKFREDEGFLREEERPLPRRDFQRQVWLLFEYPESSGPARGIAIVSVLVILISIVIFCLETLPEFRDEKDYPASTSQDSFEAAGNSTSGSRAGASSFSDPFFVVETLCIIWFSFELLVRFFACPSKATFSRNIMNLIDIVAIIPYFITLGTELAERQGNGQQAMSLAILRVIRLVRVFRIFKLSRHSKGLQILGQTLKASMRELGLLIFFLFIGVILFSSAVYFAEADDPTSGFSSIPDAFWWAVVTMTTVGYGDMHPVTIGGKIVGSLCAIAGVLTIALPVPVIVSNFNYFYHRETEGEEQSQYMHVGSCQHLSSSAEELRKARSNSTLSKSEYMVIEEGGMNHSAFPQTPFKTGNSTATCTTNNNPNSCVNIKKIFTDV
Experimental: Human venous blood from anonymized healthy donors was obtained from a blood bank. Peripheral blood mononuclear cells (PBMCs) were isolated by density gradient centrifugation using Histopaque1077 (Cat. No 10771). The obtained cells were resuspended in RPMI 1640 medium containing 10% fetal calf serum, 100 μg/mL penicillin, 100 μg/mL streptomycin, and […], seeded at a density of 5 × 10^5 cells per ml in a 24-well culture plate and grown in a 5% CO2 incubator at 37 °C for 2–5 days. Phytohemagglutinin A (Cat. No. L1668) was added to the medium at concentrations of 5, 7, and 10 μg/mL to increase the voltage-gated potassium ion channel expression.
Electrophysiological measurements were performed by using the patch clamp technique in a whole-cell configuration on voltage-clamped cells using the Axon Multiclamp 700B amplifier and the Axon Digidata1440 digitizer; the Clampex 10.7 software was used for data acquisition (all from Molecular Devices, Sunnyvale, CA, USA). Micropipettes were pulled from GC150F-15 borosilicate capillaries (Harvard Apparatus Kent, Edenbridge, UK), resulting in 3–4 MΩ resistance in the bath solution. The extracellular solution (bath solution) contained 145 mM NaCl, 5 mM KCl, 1 mM MgCl2, 2.5 mM CaCl2, 5.5 mM glucose, and 10 mM HEPES, with a pH of 7.35 and an osmolarity between 302 and 308 mOsM/L. The pipette filling solution (intracellular) consisted of 140 mM KF, 2 mM MgCl2, 1 mM CaCl2, 10 mM HEPES, and 11 mM EGTA, with a pH of 7.22 and an osmolarity of 295 mOsM/L. When the toxins were dissolved in bath solution at different molar concentrations, they were supplemented with 0.1 mg/mL bovine serum albumin (BSA). To record hKv1.3 in activated human T lymphocytes (Kv1.3 overexpression), 15 ms-long depolarizing pulses were applied at +50 mV from a holding potential of −120 mV every 15 s. Current traces were low-pass filtered by the analog four-pole Bessel filters of the amplifiers, and the sampling frequency was set at 20 kHz, which was at least twice that of the filter cutoff frequency. The control and test solutions were perfused into the cell through a gravity flow perfusion system. The excess bath solution was constantly removed with vacuum suction.
The effect of the toxin at a given molar concentration was calculated as the remaining current fraction (RCF = I/I0, where I0 is the peak current in the absence of the toxin and I is the peak current at the equilibrium block at a given toxin concentration). The data points on the dose-response curves represent the mean of 3–5 individual measurements. The data points were fitted with the Hill equation, RCF=KdH/KdH+toxin^H where [toxin] is the concentration of the toxin and H is the Hill coefficient. The best fit curve gave the Kd value of a given toxin.

hKv1.3 [2] = target: T1, hKv1.3; details: 100 nM, hKv1.3 expressed in CHO cells; cited from earlier work
Experimental: As mentioned earlier, the Kd values of Tag-Vm24 and Untag-AnTx were very similar to those reported for the native toxins. […] The Kd value of the native Ts6 was determined using Xenopus oocytes expressing rat Kv1.3 (rKv1.3). […] Differences in the type of cell expression system as well as the use of a channel from di ...

rat Kv1.3 (rKv1.3) = details: rKv1.3 expressed in oocytes; cited from earlier work
Excerpt: Anuroctoxin (AnTx, α-KTx 6.12) is a small peptide consisting of 35 amino acids (4109 Da). […] Ts6 (α-KTx 12.1) consists of 40 amino acids with a molecular mass of 4506 Da. Ts6 was isolated from the venom of the scorpion Tytyus serrulatus and inhibits hKv1. ... || In the preliminary experiments to evaluate the biological activity of the recombinant toxins, peptide concentrations slightly higher than the reported Kd values for the native toxins were used.

Kv1.3 channel = details: ref 11 (charybdotoxin), 12 (noxiustoxin), 13 (Vm24), 14 (ShK), 15 (margatoxin), 16 (HsTx1); cited from earlier work
Excerpt: Voltage-gated potassium (Kv) channels regulate the selective efflux of K^+ through the plasma membrane, thereby shaping the action potentials in excitable cells and regulating many other cellular functions in non-excitable cells. The Kv channel family includes 12 subfamilies (Kv1-Kv12). The Kv1 (Shaker) subfamily consists of eight voltage-gated potassium channels belonging to the delayed rectifier class (Kv1.1–Kv1.8). Of this Kv subfamily, the Kv1.3 channel is mainly expressed in neurons and immune cells, and therefore, channel inhibition in these cells may be useful in the t ...

Row | Compound | Hill coefficient (H) (hKv1.3 [1]) | Activity on hKv1.3 (hKv1.3 [1]) | recovery from block on perfusion with toxin-free solution (hKv1.3 [1]) | concentration range in which the toxin blocks the Kv1.3 channel (Kv1.3 channel) | further results
1 | CSCC[C@@H]1NC(=O)[C@@H]2CSSC[C@H](NC(=O)[C@H](CCC(=O)O)NC(=O)[C@H](CCCCN)NC(=O)[C@@H](N)CCC(N)=O)C(=O)N[C@@H]([C@@H](C)O)C(=O)NCC(=O)N3CCC[C@H]3C(=O)N[C@@H](CCC(N)=O)C(=O)N[C@@H](Cc3c[nH]cn3)C(=O)N[C@H]3CSSC[C@H](NC(=O)[C@H](CCCCN)NC(=O)[C@H](CCCNC(=N)N)NC(=O)[C@H](CC(N)=O)NC1=O)C(=O)N[C@@H](CCCCN)C(=O)N[C@H]1CSSC[C@H](NC(=O)[C@H](Cc4ccccc4)NC(=O)[C@H](CC(N)=O)NC(=O)[C@H]([C@@H](C)O)NC3=O)C(=O)N[C@@H](CCCNC(=N)N)C(=O)N[C@@H](CCCCN)C(=O)N[C@@H](CC(N)=O)C(=O)N[C@@H](CCCCN)C(=O)N[C@@H](CSSC[C@@H](C(=O)N[C@@H](CCCCN)C(=O)O)NC(=O)[C@H](CC(N)=O)NC(=O)[C@H](Cc3ccccc3)NC1=O)C(=O)N[C@@H]([C@@H](C)O)C(=O)N[C@@H](Cc1c[nH]cn1)C(=O)NCC(=O)N[C@@H](CCCCN)C(=O)N2 [Untag-AnTx] |  |  |  |  | Kd (hKv1.3 [1]; whole-cell patch clamp, activated human peripheral T lymphocytes, 15 ms pulses to +50 mV from -120 mV every 15 s, Hill equation fitted to remaining current fraction, mean ± SEM, n = 3-5, read-out: Kd for block of hKv1.3): 0.73 nM
2 | maurotoxin (VSCTGSKDCYAPCRKQTGCPNAKCINKSCKCYGC; UniProt P80719 1-34, looked up) |  |  |  |  | sensitivity of hKv1.3 to the toxin (hKv1.3 [2]): almost insensitive; Kd (rat Kv1.3 (rKv1.3)): 180 nM
3 | EFHHHHHHDDDDKWCSTCLDLACGASRECYDPCFKAFGRAHGKCMNNKCRCYT (disulfide 15-18, 23-44, 29-49, 33-51) [Tag-Ts6] | 1.06 | Positive | complete recovery |  | block of more than 50% of the Kv1.3 current (hKv1.3 [1]; 100 nM, 6x-His-tagged peptide): could not be replicated; time of onset of equilibrium block and complete recovery of peak current (hKv1.3 [1]; progressively increasing concentrations): a few seconds
4 | noxiustoxin: toxin that blocks the Kv1.3 channel (TIINVKCTSPKQCSKPCKELYGSSAGAKCMNGKCKCYNN; UniProt P08815 1-39, looked up) |  |  |  | nanomolar range | 
5 | EFLQHHHHHHIEGRAAAISCVGSPECPPKCRAQGCKNGKCMNRKCKCYYC (disulfide 20-40, 26-45, 30-47, 35-50) [Tag-Vm24] | 0.92 | Positive | not reversible |  | time needed to achieve equilibrium block of hKv1.3 (hKv1.3 [1]; 10 pM): ~ 25 min; time needed to reach equilibrium (steady-state) block of hKv1.3 (hKv1.3 [1]): ~ 5 min
6 | CSCC[C@@H]1NC(=O)[C@@H]2CSSC[C@H](NC(=O)[C@H](CCC(=O)O)NC(=O)[C@H](CCCCN)NC(=O)[C@H](CCC(N)=O)NC(=O)[C@H](CCCCN)NC(=O)[C@H](CC(=O)O)NC(=O)[C@H](CC(=O)O)NC(=O)[C@H](CC(=O)O)NC(=O)[C@H](CC(=O)O)NC(=O)[C@H](Cc3c[nH]cn3)NC(=O)[C@H](Cc3c[nH]cn3)NC(=O)[C@H](Cc3c[nH]cn3)NC(=O)[C@H](Cc3c[nH]cn3)NC(=O)[C@H](Cc3c[nH]cn3)NC(=O)[C@H](Cc3c[nH]cn3)NC(=O)[C@H](CCC(N)=O)NC(=O)[C@H](CC(C)C)NC(=O)[C@H](Cc3ccccc3)NC(=O)[C@@H](N)CCC(=O)O)C(=O)N[C@@H]([C@@H](C)O)C(=O)NCC(=O)N3CCC[C@H]3C(=O)N[C@@H](CCC(N)=O)C(=O)N[C@@H](Cc3c[nH]cn3)C(=O)N[C@H]3CSSC[C@H](NC(=O)[C@H](CCCCN)NC(=O)[C@H](CCCNC(=N)N)NC(=O)[C@H](CC(N)=O)NC1=O)C(=O)N[C@@H](CCCCN)C(=O)N[C@H]1CSSC[C@H](NC(=O)[C@H](Cc4ccccc4)NC(=O)[C@H](CC(N)=O)NC(=O)[C@H]([C@@H](C)O)NC3=O)C(=O)N[C@@H](CCCNC(=N)N)C(=O)N[C@@H](CCCCN)C(=O)N[C@@H](CC(N)=O)C(=O)N[C@@H](CCCCN)C(=O)N[C@@H](CSSC[C@@H](C(=O)N[C@@H](CCCCN)C(=O)O)NC(=O)[C@H](CC(N)=O)NC(=O)[C@H](Cc3ccccc3)NC1=O)C(=O)N[C@@H]([C@@H](C)O)C(=O)N[C@@H](Cc1c[nH]cn1)C(=O)NCC(=O)N[C@@H](CCCCN)C(=O)N2 [Tag-AnTx] | 0.91 | Positive | full recovery |  | time needed to reach equilibrium (steady-state) block of hKv1.3 (hKv1.3 [1]): ~ 2.5 min
7 | charybdotoxin |  |  |  | nanomolar range | 
8 | margatoxin (TIINVKCTSPKQCLPPCKAQFGQSAGAKCMNGKCKCYPH; UniProt P40755 1-39, looked up) |  |  |  | picomolar range | 

Reference: PMC9697831 (Journal of Fungi, 2022)
